{
  "source": "paper PMC12908707",
  "about": "“Pharmacodynamic effects and plasma pharmacokinetics of N, N-dimethyltryptamine after intranasal versus subcutaneous administration in male rats” (Psychopharmacology, 2025)",
  "key": {"rats [1]": {"tested_on": "rats", "set-up": "method as in Lucki et al. ([1984])", "details": "intraperitoneal (IP), ref Lucki et al. ([1984]); cited from earlier work"}, "male and female rats": {"tested_on": "male and female rats", "set-up": "method as in Tylš et al. [2016]", "details": "SC, ref Tylš et al. [2016]; cited from earlier work"}, "[2]": {"assay": "Plasma pharmacokinetics of DMT and DMT N-oxide after IN or SC DMT (LC-QQQ-MS, non-compartmental analysis)", "assay_type": "in vivo, male Sprague-Dawley rats", "details": "for AUC / Tmax / Cmax / half-life: male, Sprague-Dawley, rat, plasma DMT; for Cmax / half-life: plasma", "procedure": "For the IN DMT experiments, blood samples (300 µL) were withdrawn via IV catheters immediately before (time zero) and at 5, 10, 20, 40, and 80 min after injection. For the SC DMT experiments, blood samples were withdrawn immediately before (time zero) and at 10, 20, 40, 80, and 160 min after injection. Samples were collected into 1 mL tuberculin syringes and transferred to 1.5 mL plastic tubes containing 5 µL of 1000 IU/mL heparin (Thomas Scientific) as an anticoagulant and 5 µL of 250 mM sodium metabisulfite as a preservative. Blood was centrifuged at 1000 g for 10 min at 4 °C. Plasma was decanted into cryovials and stored at − 80 °C until analysis. To maintain volume and osmotic homeostasis, rats received an equal volume of saline solution via the IV catheter after each blood withdrawal.\nSamples were extracted using a basic solid phase extraction (SPE) procedure. Spiking solutions (final concentrations 0.1, 1.0 and 10 ng/µL) contained all analytes and were prepared by serial dilution in methanol from stock solutions. Calibration curves contained eight non-zero calibrators from 5 to 1000 ng/mL. Quality controls were assessed at 15, 60, 150, and 800 ng/mL. DMT-D4 (25 µL, 1.0 ng/µL) was utilized as the internal standard. Authentic rat plasma samples were stored at −80 °C prior to analysis.\nDrug-free rat plasma was fortified with appropriate spiking solutions and aliquoted (150 µL) for extraction. Authentic rat plasma was assayed at 150 µL. Internal standard was added at a final concentration of 125 ng/mL. Samples were diluted with 1 mL phosphate buffer (0.1 M, pH 6) followed by centrifugation for 5 min at 4200 rpm, then extracted using Chromabond® SPE cartridges (200 mg, 3 mL)(Macherey-Nagel, Allentown, PA, USA). The columns were conditioned using methanol (2 mL), deionized water (2 mL), and phosphate buffer (0.1 M, pH 6, 2 mL). The buffered sample was added to the columns and impurities were removed using deionized water (1 mL), acetic acid (0.1 M, 1 mL), and methanol (1 mL). Analytes were eluted using 3 mL of dichloromethane: isopropanol: ammonia (78:20:2, v: v:v). The organic solvent was evaporated to dryness under nitrogen at 33 °C. Samples were reconstituted in 100 µL of initial mobile phase conditions (90 A:10B)."}, "male Sprague-Dawley rats [3]": {"tested_on": "male Sprague-Dawley rats", "assay": "Behavioral scoring: motor activity (summed motor scores)", "assay_type": "in vivo", "details": "IN or SC, 1, 3, 10 mg/kg; Dunnett's post hoc test"}, "male Sprague-Dawley rats [4]": {"tested_on": "male Sprague-Dawley rats", "assay": "Behavioral scoring: flat body posture (element of the 5-HT syndrome)", "assay_type": "in vivo"}, "male Sprague-Dawley rats [5]": {"tested_on": "male Sprague-Dawley rats", "assay": "Behavioral scoring: wet dog shakes (proxy for 5-HT2A activation)", "assay_type": "in vivo", "details": "SC, 1 and 3 mg/kg"}, "male Sprague-Dawley rats [6]": {"tested_on": "male Sprague-Dawley rats", "assay": "Core body temperature by SC temperature transponder"}, "rats [7]": {"tested_on": "rats", "set-up": "method as in Baumann and Rothman [1996]; Elmore et al. [2018]", "details": "SC, dose-related increases, ref Baumann and Rothman [1996], Elmore et al. [2018]; cited from earlier work"}, "[8]": {"details": "inhaled or intranasal, 1 mg/kg IN, mean ± SEM, n = 5 rats"}, "[9]": {"details": "inhaled or intranasal, 3 mg/kg IN, mean ± SEM, n = 5 rats"}, "[10]": {"details": "inhaled or intranasal, 10 mg/kg IN, mean ± SEM, n = 5 rats"}, "[11]": {"details": "1 mg/kg SC, mean ± SEM, n = 5 rats"}, "[12]": {"details": "3 mg/kg SC, mean ± SEM, n = 5 rats"}, "[13]": {"details": "10 mg/kg SC, mean ± SEM, n = 5 rats"}},
  "note": "Read-outs that look alike come from different tables or passages of the source.",
  "data": [
    {"smiles": "COc1ccc2[nH]cc(CCN(C)C)c2c1", "note": "[5-MeO-DMT, 5-methoxy-N, N-dimethyltryptamine]", "values": [
      {"measurement": "5-HT behavioral syndrome", "setting": "rats [1]", "result": "produces the 5-HT behavioral syndrome"}
    ]},
    {"smiles": "CN(C)CCc1c[nH]c2cccc(O)c12", "note": "[psilocin, 4-hydroxy-N, N-dimethyltryptamine]", "values": [
      {"measurement": "flat body posture", "setting": "male and female rats", "result": "causes flat body posture"}
    ]},
    {"smiles": "CN(C)CCc1c[nH]c2ccccc12", "note": "[DMT, N,N-dimethyltryptamine]", "values": [
      {"measurement": "predicted AUC", "setting": "[2]; 10 mg/kg IN, ~3.3-times the measured AUC at 3 mg/kg", "result": 2950, "unit": "ng·min/mL"},
      {"measurement": "plasma concentrations of DMT by 80 min post-treatment", "setting": "[2]; after all doses of IN DMT", "result": "below the LOD, or nearly so"},
      {"measurement": "AUC", "setting": "[2]; [8]", "result": 6.08, "unit": "ng·h/mL"},
      {"measurement": "Tmax", "setting": "[2]; [8]", "result": 5, "unit": "min"},
      {"measurement": "AUC", "setting": "[2]; [9]", "result": 14.9, "unit": "ng·h/mL"},
      {"measurement": "Tmax", "setting": "[2]; [9]", "result": 6, "unit": "min"},
      {"measurement": "AUC", "setting": "[2]; [10]", "result": 93.8, "unit": "ng·h/mL"},
      {"measurement": "Tmax", "setting": "[2]; [10]", "result": 7, "unit": "min"},
      {"measurement": "Cmax", "setting": "[2]; inhaled or intranasal, 1 mg/kg, 1 mg/kg IN, mean ± SEM, n = 5 rats, read-out: Cmax", "result": "30.1 ± 7.6", "unit": "ng/mL"},
      {"measurement": "half-life", "setting": "[2]; inhaled or intranasal, 1 mg/kg, 1 mg/kg IN, mean ± SEM, n = 5 rats, read-out: t1/2", "result": "12.9 ± 2.8", "unit": "min"},
      {"measurement": "Cmax", "setting": "[2]; inhaled or intranasal, 3 mg/kg, 3 mg/kg IN, mean ± SEM, n = 5 rats, read-out: Cmax", "result": "55.6 ± 15.4", "unit": "ng/mL"},
      {"measurement": "half-life", "setting": "[2]; inhaled or intranasal, 3 mg/kg, 3 mg/kg IN, mean ± SEM, n = 5 rats, read-out: t1/2", "result": "14.3 ± 1.9", "unit": "min"},
      {"measurement": "Cmax", "setting": "[2]; inhaled or intranasal, 10 mg/kg, 10 mg/kg IN, mean ± SEM, n = 5 rats, read-out: Cmax", "result": "268 ± 50.7", "unit": "ng/mL"},
      {"measurement": "half-life", "setting": "[2]; inhaled or intranasal, 10 mg/kg, 10 mg/kg IN, mean ± SEM, n = 5 rats, read-out: t1/2", "result": "11.9 ± 1.4", "unit": "min"},
      {"measurement": "Cmax", "setting": "[2]; other: IN (intranasal, infused into the nares), 3 mg/kg, low IN doses (1 and 3 mg/kg), read-out: maximal DMT concentrations (Cmax) after low IN doses", "result": "30.2 to 55.6", "unit": "ng/mL"},
      {"measurement": "half-life", "setting": "[2]; other: IN (intranasal, infused into the nares), 10 mg/kg, IN route, across 1, 3 and 10 mg/kg, read-out: t1/2 range", "result": "11.9 to 14.3", "unit": "min"},
      {"measurement": "Cmax", "setting": "[2]; sc, 1 mg/kg, 1 mg/kg SC, mean ± SEM, n = 5 rats, read-out: Cmax", "result": "19.6 ± 2.2", "unit": "ng/mL"},
      {"measurement": "half-life", "setting": "[2]; sc, 1 mg/kg, 1 mg/kg SC, mean ± SEM, n = 5 rats, read-out: t1/2", "result": "45.5 ± 9.5", "unit": "min"},
      {"measurement": "Cmax", "setting": "[2]; sc, 3 mg/kg, 3 mg/kg SC, mean ± SEM, n = 5 rats, read-out: Cmax", "result": "35.8 ± 2.4", "unit": "ng/mL"},
      {"measurement": "half-life", "setting": "[2]; sc, 3 mg/kg, 3 mg/kg SC, mean ± SEM, n = 5 rats, read-out: t1/2", "result": "91.7 ± 26.4", "unit": "min"},
      {"measurement": "Cmax", "setting": "[2]; sc, 10 mg/kg, 10 mg/kg SC, mean ± SEM, n = 5 rats, read-out: Cmax", "result": "81.6 ± 11.1", "unit": "ng/mL"},
      {"measurement": "half-life", "setting": "[2]; sc, 10 mg/kg, 10 mg/kg SC, mean ± SEM, n = 5 rats, read-out: t1/2", "result": "123 ± 36.4", "unit": "min"},
      {"measurement": "half-life", "setting": "[2]; sc, 10 mg/kg, SC route, across 1, 3 and 10 mg/kg, read-out: t1/2 range", "result": "45.5 to 123", "unit": "min"},
      {"measurement": "AUC", "setting": "[2]; [11]", "result": 16.4, "unit": "ng·h/mL"},
      {"measurement": "Tmax", "setting": "[2]; [11]", "result": 14, "unit": "min"},
      {"measurement": "AUC", "setting": "[2]; [12]", "result": 47.7, "unit": "ng·h/mL"},
      {"measurement": "Tmax", "setting": "[2]; [12]", "result": 22, "unit": "min"},
      {"measurement": "AUC", "setting": "[2]; [13]", "result": 158, "unit": "ng·h/mL"},
      {"measurement": "Tmax", "setting": "[2]; [13]", "result": 64, "unit": "min"},
      {"measurement": "summed motor scores vs vehicle controls", "setting": "male Sprague-Dawley rats [3]", "result": "no significant differences"},
      {"measurement": "flat body posture vs vehicle", "setting": "male Sprague-Dawley rats [4]; IN, 3 and 10 mg/kg", "result": "increased above vehicle"},
      {"measurement": "flat body posture vs vehicle", "setting": "male Sprague-Dawley rats [4]; SC, only at 10 mg/kg", "result": "increased"},
      {"measurement": "wet dog shakes vs vehicle", "setting": "male Sprague-Dawley rats [5]", "result": "increased compared to vehicle"},
      {"measurement": "body temperature nadir (hypothermic effect)", "setting": "male Sprague-Dawley rats [6]; 10 mg/kg IN, sustained throughout the sampling period (80 min)", "result": 34.4, "unit": "°C"},
      {"measurement": "body temperature nadir (hypothermic effect)", "setting": "male Sprague-Dawley rats [6]; 10 mg/kg SC, subsided by end of sampling period (160 min)", "result": 34.2, "unit": "°C"},
      {"measurement": "body temperature vs saline controls", "setting": "male Sprague-Dawley rats [6]; IN, all doses, by 20 min post-treatment", "result": "significantly reduced temperature"}
    ]},
    {"smiles": "COc1cc(CC(C)N)c(OC)cc1I", "note": "(centres unmarked) [DOI, 1-(4-iodo-2,5-dimethoxyphenyl)propan-2-amine]", "values": [
      {"measurement": "wet dog shakes", "setting": "rats [7]", "result": "more than ten episodes per hour"}
    ]},
    {"smiles": "COc1cc(CCN)c(OC)cc1I", "note": "[2 C-I, 2-(4-iodo-2,5-dimethoxyphenyl)ethanamine]", "values": [
      {"measurement": "wet dog shakes", "setting": "rats [7]", "result": "more than ten episodes per hour"}
    ]},
    {"smiles": "C[N+](C)([O-])CCc1c[nH]c2ccccc12", "note": "[DMT N-oxide]", "values": [
      {"measurement": "plasma concentrations of DMT N-oxide by 80 min post-treatment", "setting": "[2]; after all doses of IN DMT", "result": "either undetectable or very low"}
    ]}
  ]
}
